Reference: patent publication US7491819B1 (priority 2004, dated 2009)
pEC50, pIC50: −log10 of the molar value. Read-outs that look alike come from different tables or passages of the source.

Columns and labels:
HIV-integrase = target: T1, HIV-integrase (Human immunodeficiency virus type 1 group M subtype B, UniProt P12497); test: HIV-Integrase Inhibition Activity (SPA bead strand-transfer assay); assay type: biochemical
T1 construct: Recombinant integrase (0.26 ng) was incubated with the beads
In short: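 Biotin-labelled substrate DNA (5 pmole) bound to streptavidin SPA beads, preloaded with recombinant integrase (0.26 ng) for 90 min at 37° C, then washed. Inhibitors and 0.1 fmol P33-labelled target DNA added; reaction stopped with 10 mM EDTA. Integration read as scintillation CPM.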

HIV-1 303B = test: microbe, parasite or virus in culture; assay type: cell-based
NL-Rluc virus = test: Inhibition of HIV replication (recombinant NL-Rluc virus, luciferase); assay type: cell-based
[1] = Human immunodeficiency virus 1, Table 2, serum condition not stated (10% FBS, 15 mg/ml human serum albumin/10% FBS or 40% human serum/5% FBS), at least 2 experiments, read-out: Activity (inhibition of HIV replication, EC50 class)
[2] = Human immunodeficiency virus 1, read-out: Inhibition of HIV replication
[3] = Table 2a, read-out: HIV-Integrase Inhibition Activity

**Q.** What does the source list for `CC1(C)OCCn2c1nc(C(=O)NCc1ccc(F)cc1)c(O)c2=O` [Example 19, Pyrimido[2,1-c][1,4]oxazine-2-carboxamide, N-[(4-fluorophenyl)methyl]-4,6,7,9-tetrahydro-3-hydroxy-9,9-dimethyl-4-oxo-]?
**A.** pIC50 (HIV-integrase; Table 1, read-out: Activity (HIV-integrase inhibition, IC50 class)): 7.00 to 8.70; pEC50 (HIV-1 303B; Human immunodeficiency virus 1, MT2, 120 h): 7.66; overall antiviral effect of the two-drug combination with Example 19 (in words) (HIV-1 303B; classification from combination indices and confidence intervals): synergistic or additive-synergistic

**Q.** Which results are given for `CN(C)C(=O)Oc1cc(F)ccc1CNC(=O)c1nc2n(c(=O)c1O)CCOC2(C)C` [Example 96, Carbamic acid, dimethyl-, 5-fluoro-2-[[[(4,6,7,9-tetrahydro-3-hydroxy-9,9-dimethyl-4-oxopyrimido[2,1-c][1,4]oxazin-2-yl)carbonyl]amino]methyl]phenyl ester]?
**A.** pIC50 (HIV-integrase): 7.00 to 8.70; pEC50 (NL-Rluc virus; [1]): 7.00 to 8.52

**Q.** `CC1(C)OCCn2c1nc(C(=O)NCc1ccc(F)cc1OC(=O)N1CCOCC1)c(O)c2=O` [Example 99, 4-Morpholinecarboxylic acid, 5-fluoro-2-[[[(4,6,7,9-tetrahydro-3-hydroxy-9,9-dimethyl-4-oxopyrimido[2,1-c][1,4]oxazin-2-yl)carbonyl]amino]methyl]phenyl ester] was tested. Which pIC50 (HIV-integrase) did it give?
**A.** 7.00 to 8.70

**Q.** And the pEC50 (NL-Rluc virus; [1])?
**A.** 7.00 to 8.52

**Q.** What does the source list for `CC1(C)OCCn2c1nc(C(=O)NCc1cccc(C3(C(F)(F)F)NN3)c1)c(O)c2=O` [Example 104, Pyrimido[2,1-c][1,4]oxazine-2-carboxamide, 4,6,7,9-tetrahydro-3-hydroxy-9,9-dimethyl-4-oxo-N-[[3-[3-(trifluoromethyl)-3-diaziridinyl]-phenyl]-methyl]-]?
**A.** pIC50 (HIV-integrase): 6.00 to 7.00; pEC50 (NL-Rluc virus; [1]): 6.00 to 7.00

**Q.** `CCC1OCCn2c1nc(C(=O)NCc1ccc(F)cc1-n1ncnc1C)c(O)c2=O` (stereo not drawn) [Example 285, Pyrimido[2,1-c][1,4]oxazine-2-carboxamide, 9-ethyl-N-[[4-fluoro-2-(5-methyl-1H-1,2,4-triazol-1-yl)phenyl]methyl]-4,6,7,9-tetrahydro-3-hydroxy-4-oxo-] was tested. Which pEC50 (NL-Rluc virus; [2]) did it give?
**A.** 7.00 to 8.52

**Q.** How did the pIC50 (HIV-integrase; [3]) turn out when `CC1(C)OCCn2c1nc(C(=O)NCc1ccc(F)cc1P(=O)(O)O)c(O)c2=O` [Example 289, Phosphonic acid, [5-fluoro-2-[[[(4,6,7,9-tetrahydro-3-hydroxy-9,9-dimethyl-4-oxopyrimido[2,1-c][1,4]oxazin-2-yl)carbonyl]amino]methyl]phenyl]-] was run?
**A.** 7.00 to 8.70

**Q.** And the pEC50 (NL-Rluc virus; [2])?
**A.** < 6.00

**Q.** `COP(=O)(O)c1cc(F)ccc1CNC(=O)c1nc2n(c(=O)c1O)CCOC2(C)C` [Example 290, Phosphonic acid, [5-fluoro-2-[[[(4,6,7,9-tetrahydro-3-hydroxy-9,9-dimethyl-4-oxopyrimido[2,1-c][1,4]oxazin-2-yl)carbonyl]amino]methyl]phenyl]-, monomethyl ester] was tested. Which pIC50 (HIV-integrase; [3]) did it give?
**A.** 7.00 to 8.70

**Q.** What about the pEC50 (NL-Rluc virus; [2]) of the same molecule?
**A.** 6.00 to 7.00

**Q.** How did the pIC50 (HIV-integrase; [3]) turn out when `CC1(C)OCCn2c1nc(C(=O)NCc1ccc(F)cc1P1(=O)OCCO1)c(O)c2=O` [Example 291, Pyrimido[2,1-c][1,4]oxazine-2-carboxamide, N-[[4-fluoro-2-(2-oxido-1,3,2-dioxaphospholan-2-yl)phenyl]methyl]-4,6,7,9-tetrahydro-3-hydroxy-9,9-dimethyl-4-oxo-] was run?
**A.** 7.00 to 8.70

**Q.** And the pEC50 (NL-Rluc virus; [2])?
**A.** < 6.00

**Q.** `CC1(C)OCCn2c1nc(C(=O)NCc1ccc(F)cc1P(=O)(O)OCCO)c(O)c2=O` [Example 292, Phosphonic acid, [5-fluoro-2-[[[(4,6,7,9-tetrahydro-3-hydroxy-9,9-dimethyl-4-oxopyrimido[2,1-c][1,4]oxazin-2-yl)carbonyl]amino]methyl]phenyl]-, mono(2-hydroxyethyl) ester] was tested. Which pIC50 (HIV-integrase; [3]) did it give?
**A.** 7.00 to 8.70

**Q.** And the pEC50 (NL-Rluc virus; [2])?
**A.** < 6.00

**Q.** `CC1(C)OCCn2c1nc(C(=O)NCc1ccc(F)cc1P(=O)(OCCO)OCCO)c(O)c2=O` [Example 293, Phosphonic acid, [5-fluoro-2-[[[(4,6,7,9-tetrahydro-3-hydroxy-9,9-dimethyl-4-oxopyrimido[2,1-c][1,4]oxazin-2-yl)carbonyl]amino]methyl]phenyl]-, bis(2-hydroxyethyl) ester] was tested. Which pIC50 (HIV-integrase; [3]) did it give?
**A.** 7.00 to 8.70

**Q.** And the pEC50 (NL-Rluc virus; [2])?
**A.** 6.00 to 7.00

**Q.** `CC1(C)COP(=O)(c2cc(F)ccc2CNC(=O)c2nc3n(c(=O)c2O)CCOC3(C)C)OC1` [Example 294, Pyrimido[2,1-c][1,4]oxazine-2-carboxamide, N-[[2-(5,5-dimethyl-2-oxido-1,3,2-dioxaphosphorinan-2-yl)-4-fluorophenyl]methyl]-4,6,7,9-tetrahydro-3-hydroxy-9,9-dimethyl-4-oxo-] was tested. Which pIC50 (HIV-integrase; [3]) did it give?
**A.** 7.00 to 8.70

**Q.** What about the pEC50 (NL-Rluc virus; [2]) of the same molecule?
**A.** 7.00 to 8.52

**Q.** Which results are given for `CC1(C)OCCn2c1nc(C(=O)NCc1ccc(F)cc1-n1ccnn1)c(O)c2=O` [Example 295, Pyrimido[2,1-c][1,4]oxazine-2-carboxamide, N-[[4-fluoro-2-(1H-1,2,3-triazol-1-yl)phenyl]methyl]-4,6,7,9-tetrahydro-3-hydroxy-9,9-dimethyl-4-oxo-]?
**A.** pIC50 (HIV-integrase; [3]): 7.00 to 8.70; pEC50 (NL-Rluc virus; [2]): 7.00 to 8.52

**Q.** `Cc1cnnn1-c1cc(F)ccc1CNC(=O)c1nc2n(c(=O)c1O)CCOC2(C)C` [Example 296, Pyrimido[2,1-c][1,4]oxazine-2-carboxamide, N-[[4-fluoro-2-(5-methyl-1H-1,2,3-triazol-1-yl)phenyl]methyl]-4,6,7,9-tetrahydro-3-hydroxy-9,9-dim ethyl-4-oxo-] was tested. Which pIC50 (HIV-integrase; [3]) did it give?
**A.** 7.00 to 8.70

**Q.** And the pEC50 (NL-Rluc virus; [2])?
**A.** 7.00 to 8.52

**Q.** With `CC(C)(C)c1cn(-c2cc(F)ccc2CNC(=O)c2nc3n(c(=O)c2O)CCOC3(C)C)nn1` [Example 297, Pyrimido[2,1-c][1,4]oxazine-2-carboxamide, N-[[2-[4-(1,1-dimethylethyl)-1H-1,2,3-triazol-1-yl]-4-fluorophenyl]methyl]-4,6,7,9-tetrahydro-3-hydroxy-9,9-dimethyl-4-oxo-] as the molecule, how does the pIC50 (HIV-integrase; [3]) read?
**A.** 7.00 to 8.70

**Q.** And the pEC50 (NL-Rluc virus; [2])?
**A.** 7.00 to 8.52

**Q.** How did the pIC50 (HIV-integrase; [3]) turn out when `Cc1nnn(-c2cc(F)ccc2CNC(=O)c2nc3n(c(=O)c2O)CCOC3(C)C)c1C` [Example 298, Pyrimido[2,1-c][1,4]oxazine-2-carboxamide, N-[[2-(4,5-dimethyl-1H-1,2,3-triazol-1-yl)-4-fluorophenyl]methyl]-4,6,7,9-tetrahydro-3-hydroxy-9,9-dimethyl-4-oxo-] was run?
**A.** 7.00 to 8.70

**Q.** What about the pEC50 (NL-Rluc virus; [2]) of the same molecule?
**A.** 7.00 to 8.52

**Q.** `CC1(C)OCCn2c1nc(C(=O)NCc1ccc(F)cc1-n1cc(CO)nn1)c(O)c2=O` [Example 299, Pyrimido[2,1-c][1,4]oxazine-2-carboxamide, N-[[4-fluoro-2-[4-(hydroxymethyl)-1H-1,2,3-triazol-1-yl]phenyl]methyl]-4,6,7,9-tetrahydro-3-hydroxy-9,9-dimethyl-4-oxo-] was tested. Which pIC50 (HIV-integrase; [3]) did it give?
**A.** 7.00 to 8.70

**Q.** What about the pEC50 (NL-Rluc virus; [2]) of the same molecule?
**A.** 7.00 to 8.52

**Q.** Which results are given for `CC1(C)OCCCn2c1nc(C(=O)NCc1ccc(F)cc1-n1ccnn1)c(O)c2=O` [Example 300, 6H-Pyrimido[2,1-c][1,4]oxazepine-2-carboxamide, N-[[4-fluoro-2-(1H-1,2,3-triazol-1-yl)phenyl]methyl]-4,7,8,10-tetrahydro-3-hydroxy-10,10-dimethyl-4-oxo-]?
**A.** pIC50 (HIV-integrase; [3]): 7.00 to 8.70; pEC50 (NL-Rluc virus; [2]): 7.00 to 8.52

**Q.** How did the pIC50 (HIV-integrase; [3]) turn out when `CC(C)(C)c1cn(-c2cc(F)ccc2CNC(=O)c2nc3n(c(=O)c2O)CCCOC3(C)C)nn1` [Example 301, 6H-Pyrimido[2,1-c][1,4]oxazepine-2-carboxamide, N-[[2-[4-(1,1-dimethylethyl)-1H-1,2,3-triazol-1-yl]-4-fluorophenyl]methyl]-4,7,8,10-tetrahydro-3-hydroxy-10,10-dimethyl-4-oxo-] was run?
**A.** 7.00 to 8.70

**Q.** What about the pEC50 (NL-Rluc virus; [2]) of the same molecule?
**A.** 7.00 to 8.52

**Q.** `Cc1nnn(-c2cc(F)ccc2CNC(=O)c2nc3n(c(=O)c2O)CCOCC3(C)C)c1C` [Example 302, 4H-Pyrimido[1,2-d][1,4]oxazepine-2-carboxamide, N-[[2-(4,5-dimethyl-1H-1,2,3-triazol-1-yl)-4-fluorophenyl]methyl]-6,7,9,10-tetrahydro-3-hydroxy-10,10-dimethyl-4-oxo-] was tested. Which pIC50 (HIV-integrase; [3]) did it give?
**A.** 7.00 to 8.70

**Q.** And the pEC50 (NL-Rluc virus; [2])?
**A.** 7.00 to 8.52

**Q.** How did the pIC50 (HIV-integrase; [3]) turn out when `Cc1nncn1-c1cc(F)ccc1CNC(=O)c1nc2n(c(=O)c1O)CCOC2(C)C` [Example 303, Pyrimido[2,1-c][1,4]oxazine-2-carboxamide, N-[[4-fluoro-2-(3-methyl-4H-1,2,4-triazol-4-yl)phenyl]methyl]-4,6,7,9-tetrahydro-3-hydroxy-9,9-dimethyl-4-oxo-] was run?
**A.** 6.00 to 7.00

**Q.** And the pEC50 (NL-Rluc virus; [2])?
**A.** < 6.00

**Q.** With `CC1(C)OCCCn2c1nc(C(=O)NCc1ccc(F)cc1N1CCOC1=O)c(O)c2=O` [Example 304, 6H-Pyrimido[2,1-c][1,4]oxazepine-2-carboxamide, N-[[4-fluoro-2-(2-oxo-3-oxazolidinyl)phenyl]methyl]-4,7,8,10-tetrahydro-3-hydroxy-10,10-dimethyl-4-oxo-] as the molecule, how does the pIC50 (HIV-integrase; [3]) read?
**A.** 7.00 to 8.70

**Q.** And the pEC50 (NL-Rluc virus; [2])?
**A.** 7.00 to 8.52

**Q.** With `CCS(=O)(=O)Nc1cc(F)ccc1CNC(=O)c1nc2n(c(=O)c1O)CCOC2(C)C` [Example 305, Pyrimido[2,1-c][1,4]oxazine-2-carboxamide, N-[[2-[(ethylsulfonyl)amino]-4-fluorophenyl]methyl]-4,6,7,9-tetrahydro-3-hydroxy-9,9-dimethyl-4-oxo-] as the molecule, how does the pIC50 (HIV-integrase; [3]) read?
**A.** 7.00 to 8.70

**Q.** And the pEC50 (NL-Rluc virus; [2])?
**A.** 7.00 to 8.52

**Q.** How did the pIC50 (HIV-integrase; [3]) turn out when `CC1(C)OCCn2c1nc(C(=O)NCc1ccc(F)cc1-n1cccn1)c(O)c2=O` [Example 306, Pyrimido[2,1-c][1,4]oxazine-2-carboxamide, N-[[4-fluoro-2-(1H-pyrazol-1-yl)phenyl]methyl]-4,6,7,9-tetrahydro-3-hydroxy-9,9-dimethyl-4-oxo-] was run?
**A.** 7.00 to 8.70

**Q.** And the pEC50 (NL-Rluc virus; [2])?
**A.** 7.00 to 8.52

**Q.** What does the source list for `Cc1nc(C)n(-c2cc(F)ccc2CNC(=O)c2nc3n(c(=O)c2O)CCOC3(C)C)n1` [Example 307, Pyrimido[2,1-c][1,4]oxazine-2-carboxamide, N-[[2-(3,5-dimethyl-1H-1,2,4-triazol-1-yl)-4-fluorophenyl]methyl]-4,6,7,9-tetrahydro-3-hydroxy-9,9-dimethyl-4-oxo-]?
**A.** pIC50 (HIV-integrase; [3]): 7.00 to 8.70; pEC50 (NL-Rluc virus; [2]): 7.00 to 8.52
